In ChEMBL document CHEMBL1201862, “PubChem BioAssay data set” (2004):
The source made the active and inactive calls.

Tests used:
[1] = molecular target: T1, Sentrin-specific protease 6 (Homo sapiens, UniProt Q9GZR1); type: functional;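 also: Luminescence-based dose-response confirmatory assay of SENP6 inhibition, following up an ultra-high-throughput screen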
T1 sequence (Q9GZR1 whole entry): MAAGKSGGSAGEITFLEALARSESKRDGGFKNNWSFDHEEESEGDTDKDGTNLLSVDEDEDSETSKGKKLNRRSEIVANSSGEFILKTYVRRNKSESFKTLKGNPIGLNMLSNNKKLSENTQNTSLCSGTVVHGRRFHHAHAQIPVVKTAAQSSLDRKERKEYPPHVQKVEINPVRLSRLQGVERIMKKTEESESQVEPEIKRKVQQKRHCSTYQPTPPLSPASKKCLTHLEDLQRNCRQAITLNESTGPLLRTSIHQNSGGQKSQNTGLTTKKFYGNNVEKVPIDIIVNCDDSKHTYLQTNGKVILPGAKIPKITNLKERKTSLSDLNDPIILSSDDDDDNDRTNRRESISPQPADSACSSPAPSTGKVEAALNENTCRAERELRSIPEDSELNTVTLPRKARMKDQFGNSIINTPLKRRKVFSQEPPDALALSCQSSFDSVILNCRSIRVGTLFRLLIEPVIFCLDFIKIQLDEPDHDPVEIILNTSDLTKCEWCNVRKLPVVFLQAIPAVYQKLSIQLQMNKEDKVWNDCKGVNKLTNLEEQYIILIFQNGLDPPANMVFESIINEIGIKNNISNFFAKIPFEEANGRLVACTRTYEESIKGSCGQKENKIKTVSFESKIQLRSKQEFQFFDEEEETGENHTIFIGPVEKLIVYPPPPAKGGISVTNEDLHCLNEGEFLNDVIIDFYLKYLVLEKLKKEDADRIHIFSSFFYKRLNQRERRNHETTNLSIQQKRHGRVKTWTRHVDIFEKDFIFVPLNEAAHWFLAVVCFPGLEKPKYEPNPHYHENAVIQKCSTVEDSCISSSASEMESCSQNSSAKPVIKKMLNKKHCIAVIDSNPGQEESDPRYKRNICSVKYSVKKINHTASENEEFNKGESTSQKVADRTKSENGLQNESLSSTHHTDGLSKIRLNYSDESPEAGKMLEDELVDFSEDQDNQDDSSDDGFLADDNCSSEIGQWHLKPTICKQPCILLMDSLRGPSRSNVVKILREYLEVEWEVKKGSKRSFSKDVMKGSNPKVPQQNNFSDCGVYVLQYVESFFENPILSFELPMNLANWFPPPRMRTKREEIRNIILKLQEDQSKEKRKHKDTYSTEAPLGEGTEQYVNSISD

[2] = molecular target: T2, Caspase-3 (Homo sapiens, UniProt P42574); type: functional;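 also: Dose-response selectivity test against caspase-3 for candidate inhibitors of sentrin-specific proteases (SENPs)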
T2 sequence (P42574 whole entry): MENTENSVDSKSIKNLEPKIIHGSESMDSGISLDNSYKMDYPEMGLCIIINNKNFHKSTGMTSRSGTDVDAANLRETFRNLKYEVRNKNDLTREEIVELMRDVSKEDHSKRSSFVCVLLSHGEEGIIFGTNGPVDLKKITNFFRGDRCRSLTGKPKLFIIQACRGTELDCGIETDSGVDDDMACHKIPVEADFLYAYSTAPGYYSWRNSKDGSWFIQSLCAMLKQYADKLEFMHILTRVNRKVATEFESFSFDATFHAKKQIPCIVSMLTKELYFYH

[3] = Intein inhibitors as potential Tuberculosis drugs, a cytotoxicity screen. [Related pubchem assays (depositor defined):AID2221, AID2223, AID434968, AID435010, AID449749, AID449750, AID489010]; type: functional
[4] = cytotoxicity toward DRD oncogenic fibroblasts, dose response, cell-based, non-viral oncogenic, luminescence (AID 1934); type: functional; conditions: Homo sapiens
[5] = tested on: BJ; assay: cytotoxicity toward BJ-TERT fibroblasts, dose response, cell-based, RAS-independent, luminescence (AID 1933); type: functional; conditions: Homo sapiens
[6] = cytotoxicity in HEK-293T cells, dose response, cytotoxicity control for TCR NF-kB inhibitor project, luminescence, T-cell screen hits (AID 489026); type: functional, cell-based;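 also: cells exposed to compound about 14 hours before the viability readout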
[7] = molecular target: Nonstructural protein 1 (Influenza A virus, UniProt Q194T2); type: functional, Influenza A virus (A/California/07/2009(H1N1))
Chain of Nonstructural protein 1 (Q194T2 whole entry): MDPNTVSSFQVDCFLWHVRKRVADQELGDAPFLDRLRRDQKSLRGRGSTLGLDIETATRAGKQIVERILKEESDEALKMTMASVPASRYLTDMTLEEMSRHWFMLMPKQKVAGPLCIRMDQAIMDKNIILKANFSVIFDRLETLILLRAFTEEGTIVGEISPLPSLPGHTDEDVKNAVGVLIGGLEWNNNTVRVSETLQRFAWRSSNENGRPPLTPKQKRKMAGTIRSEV

[8] = molecular target: MAP/microtubule affinity-regulating kinase 3 (Homo sapiens, UniProt P27448); type: functional;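 also: MARK3 affinity measured as one member of a kinome panel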
Chain of MAP/microtubule affinity-regulating kinase 3 (P27448 whole entry): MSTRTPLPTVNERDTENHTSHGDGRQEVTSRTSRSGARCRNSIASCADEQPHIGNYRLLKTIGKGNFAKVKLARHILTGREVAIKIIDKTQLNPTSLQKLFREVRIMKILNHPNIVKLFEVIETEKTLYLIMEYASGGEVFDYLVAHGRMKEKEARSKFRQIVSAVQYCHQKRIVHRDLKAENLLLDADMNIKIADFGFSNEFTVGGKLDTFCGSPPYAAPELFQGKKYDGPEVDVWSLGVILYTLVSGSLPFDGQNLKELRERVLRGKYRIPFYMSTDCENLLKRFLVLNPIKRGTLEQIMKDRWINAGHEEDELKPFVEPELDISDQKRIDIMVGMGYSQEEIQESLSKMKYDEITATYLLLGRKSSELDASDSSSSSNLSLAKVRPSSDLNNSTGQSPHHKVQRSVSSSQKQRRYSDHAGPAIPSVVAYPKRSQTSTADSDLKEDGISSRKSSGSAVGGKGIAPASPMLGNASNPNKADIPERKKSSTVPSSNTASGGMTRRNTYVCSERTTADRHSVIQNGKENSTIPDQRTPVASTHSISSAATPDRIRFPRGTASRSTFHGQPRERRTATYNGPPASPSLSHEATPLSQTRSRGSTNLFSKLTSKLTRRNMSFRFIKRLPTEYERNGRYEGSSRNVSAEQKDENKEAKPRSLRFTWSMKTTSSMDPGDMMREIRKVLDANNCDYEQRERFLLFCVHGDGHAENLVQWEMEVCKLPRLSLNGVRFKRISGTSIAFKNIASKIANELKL

[9] = molecular target: Dual specificity protein kinase CLK4 (Homo sapiens, UniProt Q9HAZ1); type: functional
Chain of Dual specificity protein kinase CLK4 (Q9HAZ1 whole entry): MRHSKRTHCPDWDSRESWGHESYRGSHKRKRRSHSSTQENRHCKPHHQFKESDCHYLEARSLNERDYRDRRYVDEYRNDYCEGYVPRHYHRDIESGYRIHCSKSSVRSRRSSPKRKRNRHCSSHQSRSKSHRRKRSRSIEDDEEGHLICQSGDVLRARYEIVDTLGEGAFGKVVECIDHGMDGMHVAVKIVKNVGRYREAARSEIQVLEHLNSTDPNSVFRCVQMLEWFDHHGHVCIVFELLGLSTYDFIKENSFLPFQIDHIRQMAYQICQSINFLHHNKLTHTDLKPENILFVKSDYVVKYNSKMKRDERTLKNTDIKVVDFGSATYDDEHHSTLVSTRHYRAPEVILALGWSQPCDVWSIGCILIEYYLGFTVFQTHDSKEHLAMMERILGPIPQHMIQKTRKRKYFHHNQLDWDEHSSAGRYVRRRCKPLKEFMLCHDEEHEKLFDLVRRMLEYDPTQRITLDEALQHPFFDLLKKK

[10] = molecular target: Macrophage-stimulating protein receptor (Homo sapiens, UniProt Q04912); assay: Navigating the Kinome. Panel member name: MST1R; type: functional
[11] = molecular target: Tyrosine-protein kinase JAK2 (Homo sapiens, UniProt O60674); type: functional;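 also: JAK2 tested as one member of a kinase panel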
Chain of Tyrosine-protein kinase JAK2 (O60674 whole entry): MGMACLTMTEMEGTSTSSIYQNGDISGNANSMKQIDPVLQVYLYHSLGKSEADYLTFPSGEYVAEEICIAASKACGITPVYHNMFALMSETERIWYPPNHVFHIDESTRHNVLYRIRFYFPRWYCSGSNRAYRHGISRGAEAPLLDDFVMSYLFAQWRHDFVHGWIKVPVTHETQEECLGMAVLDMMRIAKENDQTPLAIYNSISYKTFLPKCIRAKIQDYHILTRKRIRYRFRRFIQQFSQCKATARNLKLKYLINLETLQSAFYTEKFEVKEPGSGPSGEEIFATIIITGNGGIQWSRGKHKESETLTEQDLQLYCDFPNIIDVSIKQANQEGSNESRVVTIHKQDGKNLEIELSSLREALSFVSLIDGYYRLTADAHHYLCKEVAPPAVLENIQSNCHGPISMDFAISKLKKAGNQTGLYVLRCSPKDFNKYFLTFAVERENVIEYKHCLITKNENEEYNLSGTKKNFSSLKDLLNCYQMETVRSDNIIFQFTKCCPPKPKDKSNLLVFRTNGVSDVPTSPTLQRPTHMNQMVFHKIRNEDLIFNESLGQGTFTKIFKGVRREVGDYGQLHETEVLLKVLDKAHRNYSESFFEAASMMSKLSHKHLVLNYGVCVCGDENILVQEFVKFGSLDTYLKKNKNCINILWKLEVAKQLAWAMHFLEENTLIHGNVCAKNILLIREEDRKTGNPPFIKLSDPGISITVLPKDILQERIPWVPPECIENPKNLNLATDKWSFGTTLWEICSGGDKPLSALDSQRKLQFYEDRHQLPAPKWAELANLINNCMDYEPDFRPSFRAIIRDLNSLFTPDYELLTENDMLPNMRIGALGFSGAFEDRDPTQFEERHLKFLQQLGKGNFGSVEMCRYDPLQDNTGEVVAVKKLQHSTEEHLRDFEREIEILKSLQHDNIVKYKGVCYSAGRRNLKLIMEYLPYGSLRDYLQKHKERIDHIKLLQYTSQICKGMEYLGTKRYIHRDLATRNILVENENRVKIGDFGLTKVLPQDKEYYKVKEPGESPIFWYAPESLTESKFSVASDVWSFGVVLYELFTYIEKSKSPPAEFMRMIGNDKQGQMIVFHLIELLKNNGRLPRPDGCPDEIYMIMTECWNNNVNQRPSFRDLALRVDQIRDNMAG

[12] = molecular target: Tyrosine-protein kinase receptor TYRO3 (Homo sapiens, UniProt Q06418); type: functional;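 also: TYRO3 value obtained as one member of a kinome-wide profiling panel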
[13] = molecular target: ALK tyrosine kinase receptor (Homo sapiens, UniProt Q9UM73); type: functional;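 also: ALK tested as one member of a kinase panel screen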
[14] = molecular target: cAMP-dependent protein kinase catalytic subunit alpha (Homo sapiens, UniProt P17612); type: functional
[15] = molecular target: Glycogen synthase kinase-3 alpha (Homo sapiens, UniProt P49840); type: functional;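 also: GSK3A result taken from a broad kinome-wide kinase panel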
Chain of Glycogen synthase kinase-3 alpha (P49840 whole entry): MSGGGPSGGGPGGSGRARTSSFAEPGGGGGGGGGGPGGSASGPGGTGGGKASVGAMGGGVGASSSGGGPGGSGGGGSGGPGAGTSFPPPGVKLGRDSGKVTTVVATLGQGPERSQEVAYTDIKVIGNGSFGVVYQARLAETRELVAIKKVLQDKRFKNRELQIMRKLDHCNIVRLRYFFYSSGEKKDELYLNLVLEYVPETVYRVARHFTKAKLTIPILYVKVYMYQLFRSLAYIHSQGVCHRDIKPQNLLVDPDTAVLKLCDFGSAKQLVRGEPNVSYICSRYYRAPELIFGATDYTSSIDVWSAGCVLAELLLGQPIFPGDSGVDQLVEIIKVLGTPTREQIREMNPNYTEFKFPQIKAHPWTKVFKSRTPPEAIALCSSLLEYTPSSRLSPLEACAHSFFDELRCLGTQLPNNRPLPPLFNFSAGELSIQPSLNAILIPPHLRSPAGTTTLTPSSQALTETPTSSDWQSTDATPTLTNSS

[16] = molecular target: Activin receptor type-1 (Homo sapiens, UniProt Q04771); assay: Navigating the Kinome. Panel member name: ACVR1; type: functional
Chain of Activin receptor type-1 (Q04771 whole entry): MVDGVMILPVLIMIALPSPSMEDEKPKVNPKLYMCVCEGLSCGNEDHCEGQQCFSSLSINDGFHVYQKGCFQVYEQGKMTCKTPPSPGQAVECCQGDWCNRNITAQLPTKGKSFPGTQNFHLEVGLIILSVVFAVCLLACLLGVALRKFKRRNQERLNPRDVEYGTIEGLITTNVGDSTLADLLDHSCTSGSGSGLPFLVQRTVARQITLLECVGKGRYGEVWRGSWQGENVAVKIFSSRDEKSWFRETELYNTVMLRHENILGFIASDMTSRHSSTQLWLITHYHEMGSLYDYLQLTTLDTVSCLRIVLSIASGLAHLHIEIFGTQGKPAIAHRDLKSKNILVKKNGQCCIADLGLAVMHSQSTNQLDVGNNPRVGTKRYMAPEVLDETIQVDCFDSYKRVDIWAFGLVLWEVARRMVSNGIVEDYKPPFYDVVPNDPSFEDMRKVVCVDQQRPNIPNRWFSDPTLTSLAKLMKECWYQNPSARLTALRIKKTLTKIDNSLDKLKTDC

[17] = molecular target: Mitogen-activated protein kinase kinase kinase kinase 2 (Homo sapiens, UniProt Q12851); type: functional;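 also: measured as one member of a kinome-wide kinase panel, with MAP4K2 as the panel entry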
[18] = molecular target: Tyrosine-protein kinase BTK (Homo sapiens, UniProt Q06187); type: functional
Chain of Tyrosine-protein kinase BTK (Q06187 whole entry): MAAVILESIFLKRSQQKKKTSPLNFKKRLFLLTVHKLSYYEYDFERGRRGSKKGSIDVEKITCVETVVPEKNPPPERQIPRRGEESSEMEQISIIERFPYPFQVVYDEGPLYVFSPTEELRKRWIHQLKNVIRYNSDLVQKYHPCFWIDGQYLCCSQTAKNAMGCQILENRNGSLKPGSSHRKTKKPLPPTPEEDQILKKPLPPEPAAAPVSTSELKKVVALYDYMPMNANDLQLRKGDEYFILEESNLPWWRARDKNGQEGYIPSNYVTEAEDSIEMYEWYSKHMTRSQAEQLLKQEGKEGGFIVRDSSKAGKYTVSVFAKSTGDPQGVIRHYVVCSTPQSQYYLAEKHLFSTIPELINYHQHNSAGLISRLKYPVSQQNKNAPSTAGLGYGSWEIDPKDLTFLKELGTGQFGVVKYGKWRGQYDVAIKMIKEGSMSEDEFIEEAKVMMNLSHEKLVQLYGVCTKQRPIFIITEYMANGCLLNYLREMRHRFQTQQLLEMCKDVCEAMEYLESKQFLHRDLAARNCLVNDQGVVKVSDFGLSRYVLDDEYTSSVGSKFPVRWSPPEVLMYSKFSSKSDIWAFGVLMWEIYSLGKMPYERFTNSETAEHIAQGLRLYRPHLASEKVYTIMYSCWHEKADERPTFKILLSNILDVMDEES

[19] = molecular target: Leukocyte tyrosine kinase receptor (Homo sapiens, UniProt P29376); assay: Navigating the Kinome. Panel member name: LTK; type: functional
[20] = molecular target: Aurora kinase A (Homo sapiens, UniProt O14965); type: functional;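 also: value from the Navigating the Kinome kinase panel profiling, panel entry STK6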
[21] = molecular target: T3, cAMP-dependent protein kinase catalytic subunit PRKX (Homo sapiens, UniProt P51817); type: functional
T3 sequence (P51817 whole entry): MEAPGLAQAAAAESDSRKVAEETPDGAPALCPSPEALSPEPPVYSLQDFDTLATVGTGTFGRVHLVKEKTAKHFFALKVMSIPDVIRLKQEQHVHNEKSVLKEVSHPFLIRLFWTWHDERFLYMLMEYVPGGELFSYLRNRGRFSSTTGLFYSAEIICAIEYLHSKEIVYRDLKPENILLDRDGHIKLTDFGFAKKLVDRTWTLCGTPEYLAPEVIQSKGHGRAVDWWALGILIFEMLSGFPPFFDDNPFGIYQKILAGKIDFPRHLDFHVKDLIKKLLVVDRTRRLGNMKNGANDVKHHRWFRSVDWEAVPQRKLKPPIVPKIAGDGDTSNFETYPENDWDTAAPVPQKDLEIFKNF

[22] = molecular target: Inhibitor of nuclear factor kappa-B kinase subunit epsilon (Homo sapiens, UniProt Q14164); assay: Navigating the Kinome. Panel member name: IKBKE; type: functional
Chain of Inhibitor of nuclear factor kappa-B kinase subunit epsilon (Q14164 whole entry): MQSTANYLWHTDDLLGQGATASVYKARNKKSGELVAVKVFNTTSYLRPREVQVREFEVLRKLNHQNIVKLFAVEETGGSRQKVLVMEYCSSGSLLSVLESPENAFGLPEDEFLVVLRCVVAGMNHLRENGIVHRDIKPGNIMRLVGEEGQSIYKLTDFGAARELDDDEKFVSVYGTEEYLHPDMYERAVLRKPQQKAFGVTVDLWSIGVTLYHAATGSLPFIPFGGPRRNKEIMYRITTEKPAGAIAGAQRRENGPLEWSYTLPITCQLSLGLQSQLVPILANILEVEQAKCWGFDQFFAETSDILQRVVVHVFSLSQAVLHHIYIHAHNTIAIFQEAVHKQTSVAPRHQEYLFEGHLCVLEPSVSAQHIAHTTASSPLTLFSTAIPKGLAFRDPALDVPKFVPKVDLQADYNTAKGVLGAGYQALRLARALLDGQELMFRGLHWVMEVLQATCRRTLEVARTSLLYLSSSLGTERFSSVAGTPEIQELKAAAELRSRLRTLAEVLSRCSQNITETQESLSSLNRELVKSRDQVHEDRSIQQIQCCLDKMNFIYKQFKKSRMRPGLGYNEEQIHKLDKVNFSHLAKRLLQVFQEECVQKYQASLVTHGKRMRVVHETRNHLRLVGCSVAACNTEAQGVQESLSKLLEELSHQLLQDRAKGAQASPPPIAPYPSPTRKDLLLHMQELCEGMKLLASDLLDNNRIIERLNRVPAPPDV

[23] = molecular target: BDNF/NT-3 growth factors receptor (Homo sapiens, UniProt Q16620); type: functional;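 also: NTRK2 measured as one member of a broad kinome-wide kinase profiling panel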
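For CC50 in this document: cells exposed to compound for 72 hours before luminescence readout.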

For CCc1cc[n+](C2=C([N-]S(=O)(=O)c3cccs3)C(=O)c3ccccc3C2=O)cc1, the IC50 [1] was 3.57 µM (active) and the IC50 [2] was 12.5 µM (active).

For O=C(NC1=C(NC2CCS(=O)(=O)C2)C(=O)c2ccccc2C1=O)c1ccccc1 (configuration not stated), the CC50 [3] was 5.15 µM (active), the EC50 [4] was 14.6 µM (active) and the EC50 [5] was 11 µM (inconclusive).

In the case of CCCC(=O)NC(c1ccc(N(C)C)cc1)c1ccc2cccnc2c1O (configuration not stated), the IC50 [6] is reported as > 80 µM (inactive), the EC50 [4] is reported as 2.54 µM (active) and the IC50 [7] is reported as 17.7 µM (active). For the same compound, the EC50 [5] was 2.5 µM (active).

For O=C1NC(=O)C(c2c[nH]c3ccccc23)=C1c1nc(N2CCNCC2)nc2ccccc12, the Ki [8] was 0.398 µM (active), the Ki [9] was > 1.58 µM (inactive) and the Ki [10] was 0.1 µM (active). The Ki [11] was > 2.51 µM (inactive), the Ki [12] was > 2 µM (inactive) and the Ki [13] was 3.98 µM (active). The Ki [14] was 0.0316 µM (active), the Ki [15] was 0.0398 µM (active) and the Ki [16] was > 3.98 µM (inactive). The Ki [17] was 1 µM (active), the Ki [18] was > 6.31 µM (inactive) and the Ki [19] was 0.794 µM (active). For the same compound, the Ki [20] was > 1.58 µM (inactive), the Ki [21] was > 2 µM (inactive) and the Ki [22] was > 3.16 µM (inactive). The Ki [23] was > 3.98 µM (inactive).

In the case of COc1ccccc1N(/N=C1\Sc2ccccc2C1=O)C(C)=O, the IC50 [1] is reported as 4.28 µM (active) and the IC50 [2] is reported as 27.8 µM (active).
